Assay results: PubChem BioAssay (NCI)
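GI50: concentration for 50% inhibition of growth. TGI: concentration producing complete growth inhibition.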

Tests used:
Experiment in all cases: NCI-60 cell line screen, 384-well format
K-562 leukemia = system: K-562 leukemia
MALME-3M melanoma = system: MALME-3M melanoma
TK-10 renal = system: TK-10 renal
HT29 colon = system: HT29 colon
MDA-MB-231 breast = system: MDA-MB-231 breast
LOX IMVI melanoma = system: LOX IMVI melanoma
SF-295 CNS = system: SF-295 CNS
HL-60(TB) leukemia = system: HL-60(TB) leukemia
SK-MEL-28 melanoma = system: SK-MEL-28 melanoma
MOLT-4 leukemia = system: MOLT-4 leukemia
HS 578T breast = system: HS 578T breast
SK-MEL-5 melanoma = system: SK-MEL-5 melanoma
NCI/ADR-RES ovarian = system: NCI/ADR-RES ovarian
SR leukemia = system: SR leukemia
UACC-62 melanoma = system: UACC-62 melanoma
SW-620 colon = system: SW-620 colon
UACC-257 melanoma = system: UACC-257 melanoma
SF-268 CNS = system: SF-268 CNS
SK-OV-3 ovarian = system: SK-OV-3 ovarian
COLO 205 colon = system: COLO 205 colon
MDA-MB-435 melanoma = system: MDA-MB-435 melanoma
SNB-75 CNS = system: SNB-75 CNS
OVCAR-3 ovarian = system: OVCAR-3 ovarian
NCI-H322M lung = system: NCI-H322M lung
NCI-H23 lung = system: NCI-H23 lung
IGROV1 ovarian = system: IGROV1 ovarian
PC-3 prostate = system: PC-3 prostate
UO-31 renal = system: UO-31 renal
DU-145 prostate = system: DU-145 prostate
CAKI-1 renal = system: CAKI-1 renal
NCI-H522 lung = system: NCI-H522 lung
HOP-62 NSCLC = system: HOP-62 NSCLC
MDA-MB-468 breast = system: MDA-MB-468 breast
HCT-15 colon = system: HCT-15 colon
OVCAR-8 ovarian = system: OVCAR-8 ovarian
786-0 renal = system: 786-0 renal
OVCAR-4 ovarian = system: OVCAR-4 ovarian
RPMI-8226 leukemia = system: RPMI-8226 leukemia
SF-539 CNS = system: SF-539 CNS
T-47D breast = system: T-47D breast
OVCAR-5 ovarian = system: OVCAR-5 ovarian
NCI-H460 NSCLC = system: NCI-H460 NSCLC
NCI-H226 lung = system: NCI-H226 lung
A498 renal = system: A498 renal
RXF 393 renal = system: RXF 393 renal
SN12C renal = system: SN12C renal
ACHN renal = system: ACHN renal
MCF7 breast = system: MCF7 breast
SNB-19 CNS = system: SNB-19 CNS
HCC-2998 colon = system: HCC-2998 colon
EKVX NSCLC = system: EKVX NSCLC
HOP-92 NSCLC = system: HOP-92 NSCLC
M14 melanoma = system: M14 melanoma
BT-549 breast = system: BT-549 breast
A549 NSCLC = system: A549 NSCLC
KM12 colon = system: KM12 colon
CCRF-CEM leukemia = system: CCRF-CEM leukemia
U251 glioblastoma = system: U251 glioblastoma

## COCCOC(=O)C1=C(C)NC2=C(C(=O)CC(c3ccccc3OC)C2)C1c1cccc(O)c1 (stereo unspecified)
K-562 leukemia
  GI50: 5.62 µM
  TGI: 19.6 µM
MALME-3M melanoma
  GI50: 4.14 µM
  TGI: 23.2 µM
TK-10 renal
  GI50: 8.47 µM
  TGI: 28.1 µM
HT29 colon
  GI50: 6.75 µM
  TGI: 22.2 µM
MDA-MB-231 breast
  GI50: 4.79 µM
  TGI: 60.4 µM
LOX IMVI melanoma
  GI50: 3.75 µM
  TGI: 13.6 µM
SF-295 CNS
  GI50: 16.2 µM
  TGI: 37.5 µM
HL-60(TB) leukemia
  GI50: 1.27 µM
  TGI: 3.17 µM
SK-MEL-28 melanoma
  GI50: 11 µM
  TGI: 31 µM
MOLT-4 leukemia
  GI50: 7.21 µM
  TGI: 20.7 µM
HS 578T breast
  GI50: 1.93 µM
  TGI: 8.82 µM
SK-MEL-5 melanoma
  GI50: 4.43 µM
  TGI: 18.1 µM
NCI/ADR-RES ovarian
  GI50: 46.3 µM
  TGI: > 100 µM
SR leukemia
  GI50: 0.761 µM
  TGI: 11.5 µM
UACC-62 melanoma
  GI50: 2.38 µM
  TGI: 16.6 µM
SW-620 colon
  GI50: 13 µM
  TGI: 27 µM
UACC-257 melanoma
  GI50: 5.14 µM
  TGI: 22.8 µM
SF-268 CNS
  GI50: 15.5 µM
  TGI: 37 µM
SK-OV-3 ovarian
  GI50: 3.74 µM
  TGI: 20.4 µM
COLO 205 colon
  GI50: 7.74 µM
  TGI: 24.6 µM
MDA-MB-435 melanoma
  GI50: 9.55 µM
  TGI: 24.8 µM
SNB-75 CNS
  GI50: 9.16 µM
  TGI: 98.6 µM
OVCAR-3 ovarian
  GI50: 5.05 µM
  TGI: 17.6 µM
NCI-H322M lung
  GI50: 12.7 µM
  TGI: > 100 µM
NCI-H23 lung
  GI50: 8.58 µM
  TGI: 25.8 µM
IGROV1 ovarian
  GI50: 8.28 µM
  TGI: 24.7 µM
PC-3 prostate
  GI50: 15.6 µM
  TGI: 53.6 µM
UO-31 renal
  GI50: 34.6 µM
  TGI: > 100 µM
DU-145 prostate
  GI50: 18.5 µM
  TGI: 65 µM
CAKI-1 renal
  GI50: 4.44 µM
  TGI: 27.9 µM
NCI-H522 lung
  GI50: 2.39 µM
  TGI: 13.7 µM
HOP-62 NSCLC
  GI50: 5.19 µM
  TGI: 22.1 µM
MDA-MB-468 breast
  GI50: 2.5 µM
  TGI: 7.67 µM
HCT-15 colon
  GI50: 11.6 µM
  TGI: 27 µM
OVCAR-8 ovarian
  GI50: 6.94 µM
  TGI: 21.6 µM
786-0 renal
  GI50: 5.49 µM
  TGI: 24.2 µM
OVCAR-4 ovarian
  GI50: 2.14 µM
  TGI: 8.76 µM
RPMI-8226 leukemia
  GI50: 1.08 µM
  TGI: 4.87 µM
SF-539 CNS
  GI50: 11.2 µM
  TGI: 27.3 µM
T-47D breast
  GI50: 8.93 µM
  TGI: 66.7 µM
OVCAR-5 ovarian
  GI50: 12 µM
  TGI: 43.1 µM
NCI-H460 NSCLC
  GI50: 14.7 µM
  TGI: 30.8 µM
NCI-H226 lung
  GI50: 4.91 µM
  TGI: 27.6 µM
A498 renal
  GI50: 10.6 µM
  TGI: 29.6 µM
RXF 393 renal
  GI50: 16.2 µM
  TGI: 34.9 µM
SN12C renal
  GI50: 15.6 µM
  TGI: 41.2 µM
ACHN renal
  GI50: 17.3 µM
  TGI: 55.6 µM
MCF7 breast
  GI50: 2.68 µM
  TGI: 20.7 µM
SNB-19 CNS
  GI50: 11.4 µM
  TGI: 38 µM
HCC-2998 colon
  GI50: 3.67 µM
  TGI: 15.2 µM
EKVX NSCLC
  GI50: 17.6 µM
  TGI: 62.2 µM
HOP-92 NSCLC
  GI50: 4.02 µM
  TGI: 21 µM
M14 melanoma
  GI50: 11 µM
  TGI: 34.9 µM
BT-549 breast
  GI50: 2.55 µM
  TGI: 14.9 µM
A549 NSCLC
  GI50: 6.88 µM
  TGI: 31 µM
KM12 colon
  GI50: 9.21 µM
  TGI: 26.2 µM
CCRF-CEM leukemia
  GI50: 5.99 µM
  TGI: 19.4 µM
U251 glioblastoma
  GI50: 17.2 µM
  TGI: 44 µM
